Test results taken from PMC7955114, “Discovery of fungal surface NADases predominantly present in pathogenic species” (Nature Communications, 2021).

Assays:
NcNADase = target: T1, NcNADase (Neurospora crassa, UniProt Q7S936); test: HPLC cleavage assay; type: biochemical; conditions: 200 µM substrate, 50 mM Tris-HCl pH 8.0, 0.5 mM CaCl2, 150 mM NaCl, 20 °C (conditions described for AfNADase)
T1 construct: gene NCU07948; secreted from transiently transfected 293 cells, codon-optimized, in pCMV-Flag5a (Flag tag), anti-FLAG purified, N-glycosylated
T1 sequence (Q7S936 20-243): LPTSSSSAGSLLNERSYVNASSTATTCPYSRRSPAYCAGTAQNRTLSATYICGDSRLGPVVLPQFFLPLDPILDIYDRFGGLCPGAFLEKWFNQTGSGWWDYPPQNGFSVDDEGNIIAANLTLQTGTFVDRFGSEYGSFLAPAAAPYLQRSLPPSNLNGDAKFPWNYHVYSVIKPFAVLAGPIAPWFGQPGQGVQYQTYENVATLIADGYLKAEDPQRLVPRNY

[1] = tested on: NC(=O)c1ccc[n+]([C@@H]2O[C@H](COP(=O)(O)OP(=O)(O)OC[C@H]3O[C@@H](n4cnc5c(N)ncnc54)[C@H](O)[C@@H]3O)[C@@H](O)[C@H]2O)c1; test: purified protein; conditions: 500 µM substrate, 0.2 nM enzyme, 25 mM sodium phosphate pH 5.8, 50 mM NaCl, 5 % D2O, 23 °C
[2] = tested on: NC(=O)c1ccc[n+]([C@@H]2O[C@H](COP(=O)(O)OP(=O)(O)OC[C@H]3O[C@@H](n4cnc5c(N)ncnc54)[C@H](OP(=O)(O)O)[C@@H]3O)[C@@H](O)[C@H]2O)c1; test: purified protein; conditions: 500 µM substrate, 0.2 nM enzyme, 25 mM sodium phosphate pH 5.8, 50 mM NaCl, 5 % D2O, 23 °C
AfNADase [3] = target: T2, AfNADase (Aspergillus fumigatus, UniProt Q4WL81); test: X-ray co-crystal structure; type: binding; conditions: non-hydrolysable substrate analogue, active site of molecule B; 5 mM BAD co-crystallized, 0.1 M sodium acetate pH 5, CaCl2
T2 construct: gene nadA; N-glycosylated at N45, N95, N118; about 30 kDa; homodimer; thumb 20-117, TNT palm domain 117-234; mutants also in 293 cells (C-terminal His6)

AfNADase [4] = target: T2, AfNADase; test: X-ray structure, crystals soaked with NAD+; type: binding; conditions: active site of molecule A, EGTA-treated protein, Ca2+ absent, formed from 10 mM NAD+ soak
[5] = target: the molecule itself; test: SEC; purified recombinant AfNADase; conditions of the analysis not told in the text (Supplementary Fig. 2C-F)

In the case of `NC(=O)c1ccc[n+]([C@@H]2O[C@H](COP(=O)(O)OP(=O)(O)OC[C@H]3O[C@@H](n4cnc5c(N)ncnc54)[C@H](OP(=O)(O)O)[C@@H]3O)[C@@H](O)[C@H]2O)c1` [NADP^+], the HPLC cleavage assay (NcNADase) is reported as “Both AfNADase and NcNADase cleaved NAD^+ and NADP^+”.

With AfNADase (Aspergillus fumigatus Af293) the Km [1] was 119.7 ± 40.8 µM and the Km [2] was 106 ± 27.1 µM.

`NC(=O)c1cccc([C@@H]2O[C@H](COP(=O)(O)OP(=O)(O)OC[C@H]3O[C@@H](n4cnc5c(N)ncnc54)[C@H](O)[C@@H]3O)[C@@H](O)[C@H]2O)c1` [BAD] was tested, and the X-ray co-crystal structure (AfNADase [3]) was “We were able to co-crystallize AfNADase with BAD bound to the active site”.

`NC(=O)c1cccnc1` [Nam] was tested, and the “X-ray structure, crystals soaked with NAD+” value (AfNADase [4]; bound together with ADP-ribose) was “the reaction products, Nam and ADPR, were bound to a putative active site”.

For `NC(=O)c1ccc[n+]([C@@H]2O[C@H](COP(=O)(O)OP(=O)(O)OC[C@H]3O[C@@H](n4cnc5c(N)ncnc54)[C@H](O)[C@@H]3O)[C@@H](O)[C@H]2O)c1` [NAD^+], the HPLC cleavage assay (NcNADase) was “Both AfNADase and NcNADase cleaved NAD^+ and NADP^+”.

In the case of `Nc1ncnc2c1ncn2[C@@H]1O[C@H](COP(=O)(O)OP(=O)(O)OC[C@H]2OC(O)[C@H](O)[C@@H]2O)[C@@H](O)[C@H]1O` (some centres unmarked) [ADPR], the “X-ray structure, crystals soaked with NAD+” value (AfNADase [4]; bound together with nicotinamide) is reported as “the reaction products, Nam and ADPR, were bound to a putative active site”.

B1: Aspergillus fumigatus NADase (AfNADase), recombinant, from Sf9 insect cells (enzyme)
chain: LQHTEDSLFPARCWPDPCAGITFQNDTYVCGDPRLGPVVLPQKFPLNNELRTYARFGALCPAEFLDKWATDVAPNGTYIYPPANGFALDTEEQPILGNATLPVGMKLDRFGSEYGTFLAPLGAPYIERSLPPSNLNTFDGMYPYNYHVYQVTKEFVVGLGPIAPWFEQPGMGTQFVTYTNVLGLIDDGYLRRLDESEYDEKVEYSNPYTPGPNQ
modifications: N-linked glycosylation at N45, N95 and N118; disulfide bridges C33-80 and C38-50
notes: also called A. fumigatus NADase; gene product AFUA_6G14470
For B1, the “stoichiometry N” value [5] was 2.
